Like-named read-outs stand apart in the source and are kept apart here.

One assay concerns the target RORγ (Homo sapiens, UniProt P51449). Description: RORγ Gal4 Reporter Gene Assay. It counts as cell-based. The following applies: for IC50: 293T cells. In outline: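 Cells at 5×10^5/well were transfected with RORγ fragments fused to the GAL4 DNA-binding domain (CMV promoter), a 5×GAL4-site firefly luciferase reporter and CMV-Renilla luciferase for normalization. About 4 h later serum-free MEM and compound were added (vehicle ≤0.1%). Cultures at 37 °C, 5% CO2; at least triplicates.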
For orientation: Reporter assays use an easily measured gene product as a stand-in for the process of interest.

Assay [1] deals with RORγ ligand binding domain (LBD) (Homo sapiens (Human), UniProt P51449). Description: TR-FRET Activity Assay (ligand sensing assay, LANCE). The conditions noted are these: TR-FRET, interaction of RORγ-LBD with coactivator peptide. (In general: Time-resolved FRET reads energy transfer from a long-lived donor to a nearby acceptor.)
RORγ ligand binding domain (LBD), sequence (P51449 269-508): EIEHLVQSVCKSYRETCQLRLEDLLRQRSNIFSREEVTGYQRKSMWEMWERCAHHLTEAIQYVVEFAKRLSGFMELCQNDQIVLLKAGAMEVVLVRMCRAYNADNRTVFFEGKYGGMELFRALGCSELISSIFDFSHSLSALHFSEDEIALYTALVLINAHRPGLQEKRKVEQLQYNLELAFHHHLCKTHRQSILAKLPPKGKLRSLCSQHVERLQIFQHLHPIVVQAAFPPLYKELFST
The mark [2] stands for this setting: firefly (FF) luciferase, read-out: pIC50 (FF) (converted).
The mark [3] stands for this setting: renilla normalised (RENnorm) luciferase, read-out: pIC50 (REN) (converted).

RORγ, sequence (P51449 whole entry, looked up, the tested form may be a part): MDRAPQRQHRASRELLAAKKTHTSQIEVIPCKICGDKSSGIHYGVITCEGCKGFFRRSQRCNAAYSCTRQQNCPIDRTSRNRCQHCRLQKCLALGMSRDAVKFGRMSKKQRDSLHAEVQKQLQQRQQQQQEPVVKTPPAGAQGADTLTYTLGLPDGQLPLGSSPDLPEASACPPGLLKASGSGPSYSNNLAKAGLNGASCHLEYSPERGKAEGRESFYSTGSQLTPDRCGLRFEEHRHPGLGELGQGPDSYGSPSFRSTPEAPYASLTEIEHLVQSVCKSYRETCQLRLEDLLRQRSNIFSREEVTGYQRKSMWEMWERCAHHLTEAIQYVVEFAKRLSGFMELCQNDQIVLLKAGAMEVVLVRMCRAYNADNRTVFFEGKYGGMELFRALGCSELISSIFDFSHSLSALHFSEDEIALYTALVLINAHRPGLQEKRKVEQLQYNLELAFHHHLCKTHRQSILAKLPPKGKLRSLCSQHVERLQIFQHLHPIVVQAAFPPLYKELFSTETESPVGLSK

Take `CC1CCCCN1C(=O)c1nc(C(=O)NCC(C)(C)O)sc1-c1ccc(S(=O)(=O)NC(C)(C)C)c2ccccc12` (stereo not drawn) [304/7]: at RORγ, the “pIC50 (FF)” value is listed as 6.1/7.3/7.3 and the “pIC50 (REN)” value is recorded as 6.1/7.3/7.3. In assay [1], the “pIC50 (FRET)” value was 6.1/7.3/7.3.

For `CC1CC(C)CN(C(=O)c2nc(C(=O)NCC(C)(C)O)sc2-c2ccc(S(=O)(=O)NC(C)(C)C)c3ccccc23)C1` (stereo not drawn) [304/8], at RORγ, the “pIC50 (FF)” value is reported as 6.0/6.9/6.9 and the “pIC50 (REN)” value is listed as 6.0/6.9/6.9. In addition, the “pIC50 (FRET)” value in assay [1] was 6.0/6.9/6.9.

As for `CC(C)(C)c1cc(-c2nc(C(N)=O)sc2CC2CCCCC2)cc(C(C)(C)C)c1` [Example 1, 5-(Cyclohexylmethyl)-4-(3,5-di-tert-butylphenyl)thiazole-2-carboxamide], on RORγ, the “pIC50 (FF)” value is 6.5/5.8/5.8 and the “pIC50 (REN)” value is recorded as 6.5/5.8/5.8. Besides, in assay [1], the “pIC50 (FRET)” value was 6.5/5.8/5.8.

On to `CC(C)(C)c1cc(-c2nc(S(N)(=O)=O)sc2CC2CCCCC2)cc(C(C)(C)C)c1` [Example 2, 5-(Cyclohexylmethyl)-4-(3,5-di-tert-butylphenyl)thiazole-2-sulfonamide], for which, on RORγ, the “pIC50 (FF)” value is 5.9/6.1/6.0 and the “pIC50 (REN)” value is recorded as 5.9/6.1/6.0. Further, the “pIC50 (FRET)” value in assay [1] is on record as 5.9/6.1/6.0.

`CC(=O)NS(=O)(=O)c1nc(-c2cc(C(C)(C)C)cc(C(C)(C)C)c2)c(CC2CCCCC2)s1` [Example 3, N-((5-(Cyclohexylmethyl)-4-(3,5-di-tert-butylphenyl)thiazol-2-yl)sulfonyl)acetamide]: the IC50 at RORγ (setting [2]) and at RORγ (setting [3]) was more than 20 µM throughout. Besides, the “pIC50 (FRET)” value in assay [1] came to 5.1.

As to `CC(C)(C)c1cc(-c2sc(S(N)(=O)=O)nc2CC2CCCCC2)cc(C(C)(C)C)c1` [Example 4, 4-(Cyclohexylmethyl)-5-(3,5-di-tert-butylphenyl)thiazole-2-sulfonamide], at RORγ, the “pIC50 (FF)” value was 6.8/6.4/6.4 and the “pIC50 (REN)” value is recorded as 6.8/6.4/6.4. Besides, in assay [1], the “pIC50 (FRET)” value is reported as 6.8/6.4/6.4.

Turning to `CC(C)(C)c1cc(-c2sc(C(N)=O)nc2CC2CCCCC2)cc(C(C)(C)C)c1` [Example 5, 4-(Cyclohexylmethyl)-5-(3,5-di-tert-butylphenyl)thiazole-2-carboxamide], on RORγ, the “pIC50 (FF)” value was 6.7/6.3/6.1 and the “pIC50 (REN)” value is on record as 6.7/6.3/6.1. Also, the “pIC50 (FRET)” value in assay [1] is recorded as 6.7/6.3/6.1.

With `COC(=O)C(C)(C)CCNC(=O)c1nc(CC2CCCCC2)c(-c2cc(C(C)(C)C)cc(C3(C)CC3)c2)s1` [Example 6, Methyl 4-(5-(3-(tert-butyl)-5-(1-methylcyclopropyl)phenyl)-4-(cyclohexylmethyl)thiazole-2-carboxamido)-2,2-dimethylbutanoate], on RORγ, the “pIC50 (FF)” value is reported as 6.7/6.2/6.3 and the “pIC50 (REN)” value is recorded as 6.7/6.2/6.3. In addition, in assay [1], the “pIC50 (FRET)” value was 6.7/6.2/6.3.

With `CC(C)(C)NS(=O)(=O)c1ccc(-c2sc(C(=O)NCC3(C(N)=O)CCOCC3)nc2CC2CCCCC2)cc1C(C)(C)C` [Example 6/1], on RORγ, the “pIC50 (FF)” value is reported as 6.5/7.5/7.7 and the “pIC50 (REN)” value is given as 6.5/7.5/7.7. Besides, the “pIC50 (FRET)” value in assay [1] is listed as 6.5/7.5/7.7.

For `CC(C)(CCNC(=O)c1nc(CC2CCCCC2)c(-c2cc(C(C)(C)C)cc(C3(C)CC3)c2)s1)C(=O)O` [Example 7, 4-(5-(3-(tert-Butyl)-5-(1-methylcyclopropyl)phenyl)-4-(cyclohexylmehthyl)thiazole-2-carboxamido)-2,2-dimethylbutanoic acid], at RORγ, the “pIC50 (FF)” value was 6.3/7.0/7.0 and the “pIC50 (REN)” value is 6.3/7.0/7.0. In assay [1], the “pIC50 (FRET)” value was 6.3/7.0/7.0.

`CC(C)(C)NS(=O)(=O)c1ccc(-c2sc(C(=O)NCCC(C)(C)C(=O)O)nc2CC2CCCCC2)cc1C(C)(C)C` [Example 7/1]: at RORγ, the “pIC50 (FF)” value was 6.1/6.8/6.9 and the “pIC50 (REN)” value is listed as 6.1/6.8/6.9. Further, the “pIC50 (FRET)” value in assay [1] is given as 6.1/6.8/6.9.

As for `CC(C)(C)c1cc(-c2sc(C(=O)NC3CCOCC3)nc2CC2CCCCC2)cc(C2(C)CC2)c1` [Example 8, 5-(3-(tert-Butyl)-5-(1-methylcyclopropyl)phenyl)-4-(cyclohexylmethyl)-N-(tetrahydro-2H-pyran-4-yl)thiazole-2-carboxamide], on RORγ, the “pIC50 (FF)” value was 7.0/7.3/7.5 and the “pIC50 (REN)” value was 7.0/7.3/7.5. The “pIC50 (FRET)” value in assay [1] is 7.0/7.3/7.5.

`CC(C)(C)NS(=O)(=O)c1ccc(-c2sc(C(=O)NCCC(C)(C)C(=O)O)nc2CC2CCCCC2)cc1C(F)(F)F` [Example 9/1]: at RORγ, the “pIC50 (FF)” value is 6.5/7.4/7.4 and the “pIC50 (REN)” value is given as 6.5/7.4/7.4. Besides, the “pIC50 (FRET)” value in assay [1] is given as 6.5/7.4/7.4.

For `CC(C)(C)NS(=O)(=O)c1ccc(-c2sc(C(=O)NCCC(C)(C)C(N)=O)nc2CC2CCCCC2)cc1C(F)(F)F` [Example 10, N-(4-Amino-3,3-dimethyl-4-oxobutyl)-5-(4-(N-(tert-butyl)sulfamoyl)-3-(trifluoromethyl)phenyl)-4-(cyclohexylmethyl)thiazole-2-carboxamide], at RORγ, the “pIC50 (FF)” value is 5.9/6.9/7.0 and the “pIC50 (REN)” value is 5.9/6.9/7.0. Moreover, the “pIC50 (FRET)” value in assay [1] is listed as 5.9/6.9/7.0.

Turning to `CNC(=O)C(C)(C)CCNC(=O)c1nc(CC2CCCCC2)c(-c2ccc(S(=O)(=O)NC(C)(C)C)c(C(F)(F)F)c2)s1` [Example 10/1], on RORγ, the “pIC50 (FF)” value is reported as 6.2/7.0/7.1 and the “pIC50 (REN)” value is 6.2/7.0/7.1. Also, the “pIC50 (FRET)” value in assay [1] is 6.2/7.0/7.1.

For `CC(C)(C)c1cc(-c2sc(S(=O)(=O)NC(=O)OCc3ccccc3)nc2CC2CCCCC2)cc(C2(C)CC2)c1` [Example 12, Benzyl (5-(3-(tert-butyl)-5-(1-methylcyclopropyl)phenyl)-4-(cyclohexylmethyl)thiazol-2-yl)sulfonylcarbamate], the IC50 at RORγ (setting [2]) and at RORγ (setting [3]) was more than 20 µM each time. Besides, the “pIC50 (FRET)” value in assay [1] amounted to 5.5.

As for `CC(C)(C)c1cc(-c2sc(S(N)(=O)=O)nc2CC2CCCCC2)cc(C2(C)CC2)c1` [Example 13, 5-(3-(tert-Butyl)-5-(1-methylcyclopropyl)phenyl)-4-(cyclohexylmethyl)thiazole-2-sulfonamide], at RORγ, the “pIC50 (FF)” value is given as 7.0/6.5/6.7 and the “pIC50 (REN)” value is given as 7.0/6.5/6.7. Besides, the “pIC50 (FRET)” value in assay [1] is given as 7.0/6.5/6.7.

On to `CC(C)(C)NS(=O)(=O)c1ccc(-c2sc(S(N)(=O)=O)nc2CC2CCCCC2)cc1C(C)(C)C` [Example 13/1], for which, at RORγ, the “pIC50 (FF)” value is recorded as 6.3/6.6/6.6 and the “pIC50 (REN)” value is 6.3/6.6/6.6. The “pIC50 (FRET)” value in assay [1] was 6.3/6.6/6.6.

As to `N#CC1(NS(=O)(=O)c2ccc(-c3sc(C(=O)N4CC5(CCS(=O)(=O)CC5)C4)nc3CC3CCCCC3)c3ccccc23)CC1` [Example 14, N-(1-Cyanocyclopropyl)-4-(4-(cyclohexylmethyl)-2-(7,7-dioxido-7-thia-2-azaspiro[3.5]nonane-2-carbonyl)thiazol-5-yl)naphthalene-1-sulfonamide], at RORγ, the “pIC50 (FF)” value is on record as 6.7/7.6/7.7 and the “pIC50 (REN)” value is 6.7/7.6/7.7. In addition, the “pIC50 (FRET)” value in assay [1] is given as 6.7/7.6/7.7.

On to `CC(C)(CO)NS(=O)(=O)c1ccc(-c2sc(C(=O)N3CC4(CCS(=O)(=O)CC4)C3)nc2CC2CCCCC2)c2ccccc12` [Example 14/1], for which, at RORγ, the “pIC50 (FF)” value is given as 6.2/7.1/7.1 and the “pIC50 (REN)” value is given as 6.2/7.1/7.1. In addition, in assay [1], the “pIC50 (FRET)” value is recorded as 6.2/7.1/7.1.

For the molecule `CC(C)(C)NS(=O)(=O)c1ccc(-c2sc(C(=O)NC3C[S+]([O-])C3)nc2CC2CCCCC2)cc1C(C)(C)O` (stereo not drawn) [Example 15/1], at RORγ, the “pIC50 (FF)” value was 6.7/8.0/8.0 and the “pIC50 (REN)” value was 6.7/8.0/8.0. The “pIC50 (FRET)” value in assay [1] is 6.7/8.0/8.0.

As to `CC(C)(O)CNC(=O)c1nc(CC2CCCCC2)c(-c2ccc(S(N)(=O)=O)c(Cl)c2Cl)s1` [Example 17, 4-(Cyclohexylmethyl)-5-(2,3-dichloro-4-sulfamoylphenyl)-N-(2-hydroxy-2-methylpropyl)thiazole-2-carboxamide], the IC50 on RORγ (setting [2]) and on RORγ (setting [3]) was more than 20 µM in each case. The “pIC50 (FRET)” value in assay [1] was determined as 5.0.

With `NS(=O)(=O)c1c(Cl)cc(-c2sc(C(=O)NC3CCOCC3)nc2CC2CCCCC2)cc1C(F)(F)F` [Example 17/1], on RORγ, the “pIC50 (FF)” value is reported as 5.6/6.1/6.5 and the “pIC50 (REN)” value is listed as 5.6/6.1/6.5. Moreover, the “pIC50 (FRET)” value in assay [1] is on record as 5.6/6.1/6.5.

On to `CCNS(=O)(=O)c1ccc(-c2sc(C(=O)NCC(C)(C)O)nc2CC2CCCCC2)c(Cl)c1Cl` [Example 18, 4-(Cyclohexylmethyl)-5-(2,3-dichloro-4-(N-ethylsulfamoyl)phenyl)-N-(2-hydroxy-2-methylpropyl)thiazole-2-carboxamide], for which, at RORγ, the “pIC50 (FF)” value is 6.9/8.1/8.0 and the “pIC50 (REN)” value is listed as 6.9/8.1/8.0. In assay [1], the “pIC50 (FRET)” value is listed as 6.9/8.1/8.0.

As for `COC(c1nc(C(=O)N[C@H]2C[C@H](C(=O)O)C2)sc1-c1ccc(S(=O)(=O)NC(C)(C)C)c(C(C)(C)C)c1)C1CCCCC1` (stereo partly drawn) [Example 19, trans-3-(5-(3-(tert-Butyl)-4-(N-(tert-butyl)sulfamoyl)phenyl)-4-(cyclohexyl(methoxy)methyl)thiazole-2-carboxamido)cyclobutanecarboxylic acid], at RORγ, the “pIC50 (FF)” value is 5.4/6.4/6.6 and the “pIC50 (REN)” value is 5.4/6.4/6.6. For the same molecule, the “pIC50 (FRET)” value in assay [1] is on record as 5.4/6.4/6.6.

As to `COC(c1nc(C(=O)NC2CCOCC2)sc1-c1ccc(S(=O)(=O)NC(C)(C)C)c(C(C)(C)C)c1)C1CCCCC1` (stereo not drawn) [Example 19/1], on RORγ, the “pIC50 (FF)” value is recorded as 6.1/6.7/6.7 and the “pIC50 (REN)” value is 6.1/6.7/6.7. Further, the “pIC50 (FRET)” value in assay [1] was 6.1/6.7/6.7.
